Test results from US11884649B2, “IRE1α inhibitors and uses thereof” (The Regents of the University of California, priority 2020, dated 2024).

Assays:
[1] = test system: XBP1 mRNA splicing / RIDD; experiment: XBP1 splicing and Blos1 mRNA in LPS-treated splenocytes; type: cell-based, mouse; conditions: LPS treatment
[2] = test system: mouse splenocytes; experiment: LPS-induced differentiation of mouse splenocytes into plasma cells (flow cytometry, IgM ELISA); type: cell-based; conditions: 1 μg/mL LPS, three days; for IgM secretion / plasma cell (CD138+) differentiation: 20 μM-1.25 μM
Method: Therefore, we sought to compare the sensitivity of this process to both KIRAs and PAIRs. To this end, we assessed how KIRA8, KIRA9, and PAIR1 affected the differentiation of lipopolysaccharide (LPS)-treated mouse splenocytes into antibody-secreting plasma cells. Total live number of CD19+ B-cells were assessed and plasma cells were quantified on the basis of B220 downregulation and CD138 expression by flow cytometry (FIGS. 6A-6C, FIG. 24). Concomitantly, secreted IgM was measured in the cell culture supernatants by ELISA (FIG. 6C).
Splenocyte Isolation and Differentiation
Red blood cells were lysed with ammonium chloride potassium buffer. Splenocytes were plated at 2.5×10^5 cells/well in a 96-well round bottom plate in complete media. The splenocytes were treated with or without 1 μg/ml LPS 026:b6 (Sigma). […] The splenocytes were incubated for three days in a 37° C., 5% CO2 humidified chamber before collection and staining for flow cytometry.
Cells from the plasma cell assay were collected in a 96-well plate and washed with PBS followed by staining with LIVE/DEAD Fixable Near-IR Dead Cell Stain kit (Invitrogen). Reagent was reconstituted as per manufacturer's instructions, diluted 1:1000 in PBS, and cells were stained in 100 μL on ice for 20 minutes. The cells were then washed with FACS buffer, PBS (Corning), 2 mM EDTA and 2% heat inactivated fetal bovine serum (Omega Scientific). The cells were then stained with 50 μL antibody cocktail consisting of anti-CD19 (BioLegend), anti-CD45R (BD Pharmingen), and anti-CD138 (BioLegend) in FACS buffer on ice for 15 minutes. Cells were resuspended in FACS buffer and combined with an equal volume of 4% paraformaldehyde with 5000 Countbright Absolute Counting Beads (Thermofisher). Stained cells were analyzed on a Fortessa (Becton Dickinson). Data analysis was performed using FlowJo (v10) software (Treestar Inc.).
Media supernatants from the in vitro plasma cell differentiation assay were measured for secreted IgM by ELISA. […] Wash buffer (PBS with 0.05% Tween-20 (v/v)) was used for all washing steps and blocked with PBS-BB (PBS without Ca^2+/Mg^2+, 1% BSA (w/v), 0.05% Tween-20 (v/v)). Supernatants from LPS stimulated samples were diluted (1:100) and media only samples were diluted (1:10) in PBS-BB. […] ELISA plates were developed with TMB (Sigma) and stopped with 1N sulfuric acid. Absorbance was measured at 450 nm using spectrophotometer (Spectramax M5, Molecular Devices). Sample IgM concentration values were calculated with SoftMaxPro software.

| Compound | Blos1 mRNA decay [1] | XBP1 mRNA splicing [1] | overall number of B cells (CD19+), general toxicity [2] | IgM secretion [2] | plasma cell (CD138+) differentiation [2] |
| --- | --- | --- | --- | --- | --- |
| O=S(=O)(CCC(F)(F)F)Nc1ccc(Oc2ncccc2-c2ccnc(NC3CCCNC3)n2)c2ccccc12 (stereo not shown) [KIRA9, 3,3,3-trifluoro-N-(4-(3-(2-(piperidin-3-ylamino)pyrimidin-4-yl)pyridin-2-yloxy)naphthalen-1-yl)propane-1-sulfonamide] | significantly rescued | reversed | neither PAIR1 nor KIRA9 reduced the overall number of B cells | reductions in both plasma cell differentiation and IgM secretion in a dose-dependent manner | reductions in both plasma cell differentiation and IgM secretion in a dose-dependent manner |
| O=S(=O)(CC(F)(F)F)Nc1ccc(Oc2ncccc2-c2ccnc(N[C@H]3CCCNC3)n2)c2ccccc12 (stereo in doubt) [PAIR1, 2,2,2-trifluoro-N-(4-(3-(2-(piperidin-3-ylamino)pyrimidin-4-yl)pyridin-2-yloxy)naphthalen-1-yl)ethanesulfonamide] | significantly rescued | reversed with KIRA9, but not with PAIR1 | neither PAIR1 nor KIRA9 reduced the overall number of B cells | more modest inhibition | more modest inhibition |
